Measurements taken from US20250179187A1, “ANTI PD-L2 ANTIBODY” (REJUVERON SENESCENCE THERAPEUTICS AG, priority 2022, published 2025).

Test system: PyMT spontaneous tumors
Experiment: Spontaneous mouse PyMT breast tumor model with tumor immunostaining
Type: in vivo
Details: immunohistochemistry; antibody co-treated with doxorubicin vs Vehicle or Doxorubicin+mIgG1 (p<0.05)
Procedure: Hemizygous transgenic PyMT mice were allowed to develop tumors to an average size of around 200 cubic millimeters, usually around 9 weeks, at which time treatment was initiated, with N=3-5 per treatment group. Doxorubicin (Aurovitas) was administered intraperitoneally once per week at 4 mg/kg and antibodies were administered every three days at a dose of 10 mg/kg during four weeks or 3 mg/kg where noted. Vehicle-treated animals received only vehicle solvent for doxorubicin as a no-treatment control. Tumors were measured with a standard caliper once per week. At the end of the study, tumors were resected and further analyzed by immunohistochemistry. […]
For double SA-beta-galactosidase/PD-L2 staining, following resection, tumors were fixed in 2% paraformaldehyde and 0.2% glutaldehyde in PBS for 2 hours at room temperature. […] To quantify the number of cells double positive for SA-beta-galactosidase and PDL2, 3 random fields from 2 mammary glands from each animal in each treatment group was analyzed with Image J software. Staining for CD3, CD4 and CD8 was also carried out by standard immunohistochemistry techniques on paraffin-embedded material and quantified according to pixel density using Image J software.

COc1cccc2c1C(=O)c1c(O)c3c(c(O)c1C2=O)C[C@@](O)(C(=O)CO)C[C@@H]3O[C@H]1C[C@H](N)[C@H](O)[C@H](C)O1 [doxorubicin, reference compound]
cells double-positive for PD-L2 and SA-βGal in PyMT tumors: significantly induces double-positive cells
